Experimental data: article PMC6895048, “4,5-Disubstituted 1,2,3-triazoles: Effective Inhibition of Indoleamine 2,3-Dioxygenase 1 Enzyme Regulates T cell Activity and Mitigates Tumor Growth” (Scientific Reports, 2019)

How the values were obtained:
IDO1 [1] = settings: cited from earlier work
[2] = cited from earlier work
IDO1 [3] = settings: cited from earlier work; remark: listed apart in the source
IDO1 [4] = molecular target: T1, IDO1 (Homo sapiens, UniProt P14902); test: Cellular IDO1 activity assay in IFN-γ induced MDA-MB-231 cells; type: cell-based; design: induce the expression of the native IDO1 enzyme from its mRNA in the MDA-MB-231 cells; endogenous in cells; host or cells: MDA-MB-231 cells induced with human IFN-γ (50 ng/mL); settings: IDO1 expression induced by human IFN-γ (50 ng/mL); mean of three
T1 sequence (P14902 whole entry): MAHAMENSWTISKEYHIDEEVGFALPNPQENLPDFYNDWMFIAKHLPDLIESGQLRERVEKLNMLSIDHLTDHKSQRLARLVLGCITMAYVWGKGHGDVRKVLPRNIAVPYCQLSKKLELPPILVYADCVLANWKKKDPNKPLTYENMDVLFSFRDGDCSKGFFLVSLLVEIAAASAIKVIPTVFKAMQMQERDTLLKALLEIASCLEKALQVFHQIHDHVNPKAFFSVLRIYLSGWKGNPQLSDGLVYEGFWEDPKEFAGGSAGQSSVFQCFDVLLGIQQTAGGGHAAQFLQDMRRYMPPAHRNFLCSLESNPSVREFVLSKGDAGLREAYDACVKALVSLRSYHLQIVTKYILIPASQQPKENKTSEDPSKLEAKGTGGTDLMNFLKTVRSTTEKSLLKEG
Description: The cellular enzyme activity assay was performed according to the reported procedure with minor modifications[19],[27]–[30],[33],[54]. Briefly, MDA-MB-231 breast cancer cells were selected for this assay because of the presence of IDO1 mRNA in this cell line. First, cells were grown in DMEM/F12 complete media overnight. Then different concentration of human interferon-gamma (IFN-γ) (from 5–1000 ng/mL) was added to it and incubated for 48 hours. This treatment is reported to allow over-expression of IDO1 enzyme in MDA-MB-231 cells. […] Sterile cell-culture grade PBS was used to wash the cells by centrifugation technique. Then, the pellet was lysed in 10 mM HEPES buffer by passing through a sterile syringe. The lysate was used for standard IDO1 assay as mentioned earlier. The relative amount of N-formylkynurenine generated in the presence of the different concentration of IFN-γ was used to optimize the required concentration of IFN-γ for the IDO1 inhibition assay. […] Cells stimulated with IFN-γ alone were used as negative control, while cells stimulated with L-Trp without compound served as positive control. The cells were washed with sterile cell culture grade PBS and lysed in 10 mM HEPES buffer by sterile syringe. The lysate was used for standard IDO1 assay, as mentioned earlier, and the extent of IDO1 enzyme inhibition was determined for the selected compounds.

[5] = molecular target: T2, purified human TDO enzyme (Homo sapiens, UniProt P48775); test: TDO inhibition assay by the spectrometric method; type: biochemical; settings: spectrophotometric
T2 construct: 6xHis (N); made in house; host or cells: Escherichia coli BL21 (DE3) (pET 28a vector)
T2 sequence (P48775 whole entry): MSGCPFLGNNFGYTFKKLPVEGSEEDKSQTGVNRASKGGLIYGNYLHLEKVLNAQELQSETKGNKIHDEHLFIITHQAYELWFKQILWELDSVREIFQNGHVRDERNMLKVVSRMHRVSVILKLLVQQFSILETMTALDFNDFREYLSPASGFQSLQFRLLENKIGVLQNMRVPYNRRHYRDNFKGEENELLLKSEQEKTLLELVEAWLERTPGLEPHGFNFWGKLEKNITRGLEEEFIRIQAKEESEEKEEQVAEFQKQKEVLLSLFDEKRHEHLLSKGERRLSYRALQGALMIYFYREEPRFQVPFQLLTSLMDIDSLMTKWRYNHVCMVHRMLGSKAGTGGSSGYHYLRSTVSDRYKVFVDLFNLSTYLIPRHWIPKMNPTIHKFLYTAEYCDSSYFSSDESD
Description: Both IDO1 and TDO inhibition assays were performed according to the reported procedures[26]–[30],[50],[51]. The solubility of the compounds in water was either moderate or poor. […] In the assay system, the minimum and maximum amount of DMSO was 0.02% and 2%, respectively. The standard reaction mixture (500 μL) containing KPB (100 mM, pH 6.5 for IDO1 enzyme and 50 mM, pH 8.0 for TDO enzyme), sodium ascorbate (20 mM), methylene blue (10 µM), catalase (240 nM, from bovine liver), L-Trp (150 µM), purified enzyme (40 nM for IDO1 and 25 nM for TDO), DMSO (0.05%, v/v), Triton-X 100 (0.01%, v/v) and inhibitors was incubated at 37 °C for 1 hour. The concentration of the inhibitors was varied from 100 µM to 32 nM by serial dilution technique. Then, the reaction was quenched with 100 µL of 30% (w/v) trichloroacetic acid and was incubated for further 15 minutes at 65 °C. After that, 2% (w/v) pDMAB was used to quantify the amount of kynurenine formation. The absorbance of the reaction mixture was recorded by UV-Vis spectrophotometer at 480 nm. The Km = 59.76 µM and Kcat = 6.18 sec^−1.

IDO1 [6] = molecular target: T1, IDO1; test: Kynurenine assay by HPLC analysis, IDO1; type: biochemical; design: made in house; host or cells: Escherichia coli M15 (pQE30 vector with pREP4 plasmid); settings: for IC50: HPLC based IDO1 inhibition assay; for % Of inhibition for IDO1 enzyme / inhibition at 0.032 µM / inhibition at 0.16 µM / inhibition at 0.8 µM / inhibition at 4 µM / inhibition at 20 µM / inhibition at 100 µM: HPLC
Description: (§1) HPLC based IDO1, and TDO inhibition assays were performed according to the earlier reported procedure[19],[27]–[30]. The reaction mixture (250 µL) contained KPB (100 mM, pH 6.5 for IDO1 and 50 mM, pH 8.0 for TDO), sodium ascorbate (20 mM), methylene blue (10 µM), catalase (240 nM, from bovine liver, Sigma), L-Trp (150 µM), purified enzyme (40 nM for IDO1 and 25 nM for TDO), DMSO (0.05%, v/v), Triton-X 100 (0.01%, v/v) and inhibitors. The concentration of the compound was varied from 100 µM to 32 nM by serial dilution. The mixture was incubated at 37 °C for 1 hour in the absence and presence of the synthesized compounds. The reaction was then quenched using 50 µL of 30% (w/v) trichloroacetic acid and incubated at 65 °C for additional 15 minutes to allow complete hydrolysis of N-formylkynurenine to kynurenine. After that, the mixture was centrifuged at 10,000 rpm for 10 minutes, and 100 µL of clear solution was transferred to another tube for HPLC analysis. Then, 20 µL of the reaction mixture was then injected through Ascentis® express C18, 2.7 µm HPLC column with a flow rate of 0.5 mL/minute of the mobile phase containing 50% sodium citrate buffer (40 mM, pH 2.25) and 50% methanol (v/v) with 400 µM SDS. The area under the curve at 365 nm chromatogram corresponding to the kynurenine formation was recorded, and % of inhibition was calculated using standard curve prepared with pure kynurenine (from Sigma) under similar experimental conditions.

TDO enzyme = molecular target: T3, TDO enzyme (Homo sapiens, UniProt P48775); test: HPLC based TDO inhibition assay; type: biochemical
T3 construct: 6xHis (N); made in house; host or cells: Escherichia coli BL21 (DE3) (pET 28a vector)
T3 sequence (P48775 whole entry): as above
Description: as §1

[7] = molecular target: T4, purified human IDO1 enzyme (Homo sapiens, UniProt P14902); test: IDO1 inhibition assay by the spectrometric method (pDMAB); type: biochemical; settings: for IC50: purified human IDO1, spectrophotometric, mean of three independent assays, read-out: hIDO1 IC50; for fold stronger IDO1 inhibitory activity than 1a: in comparison with lead compound 1a
T4 construct: made in house; host or cells: Escherichia coli M15 (pQE30 vector with pREP4 plasmid)
T4 sequence (P14902 whole entry): as the sequence (P14902 whole entry) above
Description: Both IDO1 and TDO inhibition assays were performed according to the reported procedures[26]–[30],[50],[51]. […] In the assay system, the minimum and maximum amount of DMSO was 0.02% and 2%, respectively. […] The concentration of the inhibitors was varied from 100 µM to 32 nM by serial dilution technique. Then, the reaction was quenched with 100 µL of 30% (w/v) trichloroacetic acid and was incubated for further 15 minutes at 65 °C. After that, 2% (w/v) pDMAB was used to quantify the amount of kynurenine formation. The absorbance of the reaction mixture was recorded by UV-Vis spectrophotometer at 480 nm.

Row | EC50 (IDO1 [4]) [nM] | IC50 (IDO1 [6]) [nM] | IC50 [7] [nM] | inhibition at 0.032 µM ([5]; 32 nM) [%] | inhibition at 0.16 µM ([5]; 160 nM) [%] | inhibition at 0.8 µM ([5]; 800 nM) [%] | inhibition at 4 µM ([5]; 4 µM) [%] | inhibition at 20 µM ([5]; 20 µM) [%] | inhibition at 100 µM ([5]; 100 µM) [%] | inhibition at 0.032 µM (IDO1 [6]; 32 nM) [%] | inhibition at 0.16 µM (IDO1 [6]; 160 nM) [%] | inhibition at 0.8 µM (IDO1 [6]; 800 nM) [%] | inhibition at 4 µM (IDO1 [6]; 4 µM) [%] | inhibition at 20 µM (IDO1 [6]; 20 µM) [%] | inhibition at 100 µM (IDO1 [6]; 100 µM) [%] | inhibition at 0.032 µM (TDO enzyme; 32 nM) [%] | inhibition at 0.16 µM (TDO enzyme; 160 nM) [%] | inhibition at 0.8 µM (TDO enzyme; 800 nM) [%] | inhibition at 4 µM (TDO enzyme; 4 µM) [%] | inhibition at 20 µM (TDO enzyme; 20 µM) [%] | SMILES | other results
1 | 160 ± 7 | 257 ± 9 | 163 ± 25 | – | – | – | – | – | – | – | – | – | – | – | – | – | – | – | – | – | CCOC(=O)c1n[nH]nc1-c1ccc(Cl)c(Cl)c1 [Compound 2j] | % of Enzyme inhibition (TDO) ([5]; 32 nM): 8%; % of Enzyme inhibition (TDO) ([5]; 160 nM): 12%; % of Enzyme inhibition (TDO) ([5]; 800 nM): 25%; % of Enzyme inhibition (TDO) ([5]; 4 µM): 30%; % of Enzyme inhibition (TDO) ([5]; 20 µM): 44%; % of Enzyme inhibition (TDO) ([5]; 100 µM): 53%; % Of inhibition for IDO1 enzyme (IDO1 [6]; 32 nM): 24%; % Of inhibition for IDO1 enzyme (IDO1 [6]; 160 nM): 31%; % Of inhibition for IDO1 enzyme (IDO1 [6]; 800 nM): 52%; % Of inhibition for IDO1 enzyme (IDO1 [6]; 4 µM): 65%; % Of inhibition for IDO1 enzyme (IDO1 [6]; 20 µM): 77%; % Of inhibition for IDO1 enzyme (IDO1 [6]; 100 µM): 77%; % Of inhibition for TDO enzyme (TDO enzyme; 32 nM): 1%; % Of inhibition for TDO enzyme (TDO enzyme; 160 nM): 35%; % Of inhibition for TDO enzyme (TDO enzyme; 800 nM): 36%; % Of inhibition for TDO enzyme (TDO enzyme; 4 µM): 49%; % Of inhibition for TDO enzyme (TDO enzyme; 20 µM): 41%; % Of inhibition for TDO enzyme (TDO enzyme; 100 µM): 43%
2 | 83 ± 5 | 98 ± 7 | 93 ± 9 | 3 | 10 | 11 | 19 | 25 | 26 | 33 | 57 | 65 | 88 | 93 | 94 | 14 | 15 | 22 | 29 | 38 | NS(=O)(=O)NCCNC(=O)c1n[nH]nc1-c1ccc(Cl)c(Cl)c1 [Compound 4l, 5-(3,4-dichlorophenyl)-N-(2-(sulfamoylamino)ethyl)-2H-1,2,3-triazole-4-carboxamide] | inhibition at 100 µM (TDO enzyme; 100 µM): 55%; inhibition at 4 µM ([7]; 4 μM compound): 71 to 86%; inhibition at 100 µM ([7]; 100 μM compound): 82 to 93%
3 | 1300 ± 68 | 1190 ± 39 | 8541 ± 84 | 5 | 7 | 19 | 23 | 29 | 42 | 11 | 31 | 36 | 63 | 79 | 80 | 3 | 4 | 17 | 22 | 25 | NC(=O)c1n[nH]nc1-c1ccccc1 [Compound 3a, 5-phenyl-2H-1,2,3-triazole-4-carboxamide] | inhibition at 100 µM (TDO enzyme; 100 µM): 30%; fold stronger IDO1 inhibitory activity than 1a [7]: 10 fold

More lines, now with the values behind:

Row | SMILES | EC50 (IDO1 [4]) [nM] | IC50 (IDO1 [6]) [nM] | IC50 [7] [nM] | inhibition at 0.032 µM ([5]; 32 nM) [%] | inhibition at 0.16 µM ([5]; 160 nM) [%] | inhibition at 0.8 µM ([5]; 800 nM) [%] | inhibition at 4 µM ([5]; 4 µM) [%] | inhibition at 20 µM ([5]; 20 µM) [%] | inhibition at 100 µM ([5]; 100 µM) [%] | inhibition at 0.032 µM (IDO1 [6]; 32 nM) [%] | inhibition at 0.16 µM (IDO1 [6]; 160 nM) [%] | inhibition at 0.8 µM (IDO1 [6]; 800 nM) [%] | inhibition at 4 µM (IDO1 [6]; 4 µM) [%] | inhibition at 20 µM (IDO1 [6]; 20 µM) [%] | inhibition at 100 µM (IDO1 [6]; 100 µM) [%] | inhibition at 0.032 µM (TDO enzyme; 32 nM) [%] | inhibition at 0.16 µM (TDO enzyme; 160 nM) [%] | inhibition at 0.8 µM (TDO enzyme; 800 nM) [%] | inhibition at 4 µM (TDO enzyme; 4 µM) [%] | inhibition at 20 µM (TDO enzyme; 20 µM) [%] | other results
4 | Oc1ccc(Cl)cc1-c1cnn[nH]1 [MMG-0358, 4-chloro-2-(1H-1,2,3-triazol-5-yl)phenol] | – | – | – | – | – | – | – | – | – | – | – | – | – | – | – | – | – | – | – | – | IDO1 inhibitory activities, enzymatic assay (IDO1 [1]): nanomolar-level; cytotoxicity [2]: low cytotoxicity; IDO1 inhibitory activities, cellular assay (IDO1 [3]): nanomolar-level
5 | CCc1ccccc1Nc1cnn[nH]1 [N-(2-Ethylphenyl)-1H-1,2,3-triazol-5-amine] | – | – | – | – | – | – | – | – | – | – | – | – | – | – | – | – | – | – | – | – | cellular IDO1 inhibitory activities (IDO1 [3]): nanomolar-level
6 | CCOC(=O)c1n[nH]nc1-c1ccccc1 [Compound 2a, ethyl 5-phenyl-2H-1,2,3-triazole-4-carboxylate] | 3260 ± 45 | 2790 ± 66 | 14400 ± 3360 | 8 | 17 | 19 | 23 | 27 | 34 | 26 | 31 | 35 | 61 | 76 | 81 | 9 | 39 | 49 | 68 | 68 | inhibition at 100 µM (TDO enzyme; 100 µM): 73%; fold stronger IDO1 inhibitory activity than 1a [7]: 6 fold
